Test systems include A549 NSCLC; DU-145 prostate; HL-60(TB) leukemia; HOP-62 NSCLC; NCI-H460 lung; OVCAR-5 ovarian; SK-MEL-5 melanoma; SN12C renal; T-47D breast; UACC-62 melanoma.
What all share (assay): DTP human tumour cell line panel, 48 h

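Values below derive from 48-hour exposures of cells grown in 96-well plates, with endpoints linearly interpolated between the two concentrations bracketing the appropriate inhibition level. At the GI50, growth is halved. At the TGI there is no net growth.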

Regarding `O=[N+]([O-])c1ccc(/C=N\Nc2ccc([N+](=O)[O-])cn2)cc1`, the TGI in the assay with A549 NSCLC, in the assay with DU-145 prostate, in the assay on HL-60(TB) leukemia, in the assay on HOP-62 NSCLC, in the assay with NCI-H460 lung and in the assay on OVCAR-5 ovarian was more than 100 µM in each case. Besides, the TGI in the assay with SK-MEL-5 melanoma, with SN12C renal, in the assay on T-47D breast and in the assay with UACC-62 melanoma was more than 100 µM in each case.

In the case of `COc1ccc2[nH]c3c([N+](=O)[O-])ccc(Cl)c3c(=O)c2c1`, the TGI (commonly the concentration giving total growth inhibition) was more than 100 µM with A549 NSCLC; more than 100 µM with DU-145 prostate; 9.84 µM in the assay on HL-60(TB) leukemia; 73.6 µM in the assay with HOP-62 NSCLC; more than 95.4 µM in the assay with NCI-H460 lung; more than 58 µM in the assay with OVCAR-5 ovarian. Further, the TGI in the assay on SK-MEL-5 melanoma was 55.2 µM; in the assay with SN12C renal, 55.1 µM; in the assay with T-47D breast, more than 84.7 µM; in the assay on UACC-62 melanoma, 34.5 µM.

Consider `C=C1CC23CCC4C(C)(C(=O)O)CCCC4(C)C2CCC1C3` (stereo not given), for which the TGI was more than 100 µM in the assay on A549 NSCLC; more than 100 µM in the assay on DU-145 prostate; more than 100 µM in the assay with HOP-62 NSCLC; 59.1 µM in the assay with NCI-H460 lung; more than 100 µM in the assay on OVCAR-5 ovarian; more than 100 µM with SN12C renal. For the same compound, the TGI in the assay on T-47D breast and with UACC-62 melanoma was more than 100 µM each time.

For `c1ccc(-n2cnnc2-c2nsc3ccccc23)cc1`, the TGI in the assay with A549 NSCLC, in the assay with HL-60(TB) leukemia, in the assay with HOP-62 NSCLC, in the assay with NCI-H460 lung, in the assay on OVCAR-5 ovarian and in the assay with SK-MEL-5 melanoma was more than 100 µM throughout. Besides, the TGI with SN12C renal and in the assay with UACC-62 melanoma was more than 100 µM in each case.

With `C/C1=N\NC(=O)c2ccccc2C(=O)N/N=C(\C)c2cccc1n2.O=[N+]([O-])[O-].[Zn+2]`, the TGI in the assay with A549 NSCLC, in the assay with HOP-62 NSCLC, in the assay with NCI-H460 lung, with OVCAR-5 ovarian, in the assay on SK-MEL-5 melanoma and with SN12C renal was more than 100 µM throughout. In the assay on UACC-62 melanoma, this compound gave a TGI of more than 100 µM.

Take `COc1cc(C(C)(C)C)cc(OC)c1C(O)(c1c(OC)cc(C(C)(C)C)cc1OC)c1c(OC)cc(C(C)(C)C)cc1OC`: the GI50 (usually the concentration at which growth is held to half of that of the control) in the assay with A549 NSCLC is 0.324 µM; with HL-60(TB) leukemia it was 0.14 µM; with NCI-H460 lung, 0.288 µM; in the assay with OVCAR-5 ovarian, 0.327 µM; in the assay with SK-MEL-5 melanoma, 0.236 µM. In addition, the TGI came out at 1.23 µM in the assay on A549 NSCLC; 0.394 µM in the assay on HL-60(TB) leukemia; 0.853 µM in the assay with NCI-H460 lung; 1.02 µM in the assay with OVCAR-5 ovarian; 0.552 µM with SK-MEL-5 melanoma.

Turning to `O=C(O)CC(C(=O)O)C1c2ccccc2-c2ccccc21` (stereo not given), the TGI in the assay with A549 NSCLC, in the assay on DU-145 prostate, in the assay with HL-60(TB) leukemia, in the assay on HOP-62 NSCLC, with NCI-H460 lung and in the assay with SK-MEL-5 melanoma was more than 100 µM throughout. Besides, the TGI with SN12C renal, in the assay on T-47D breast and with UACC-62 melanoma was more than 100 µM each time.

Take `C=C(C)C1CC2=C(O1)C(=O)c1ccccc1C2=O` (stereo not given): the TGI in the assay with A549 NSCLC is 42.3 µM; with HL-60(TB) leukemia, 15 µM; in the assay on HOP-62 NSCLC, 35.2 µM; in the assay with NCI-H460 lung, 33.8 µM; in the assay on SK-MEL-5 melanoma, 28.1 µM; in the assay with SN12C renal, 43.5 µM. In the assay with UACC-62 melanoma, this compound showed a TGI of 30.4 µM.

For the compound `Nc1cc(S(=O)(=O)O)cc2cc(S(=O)(=O)O)c(N=Nc3ccc(-c4ccc(N=Nc5c(S(=O)(=O)O)cc6cc(S(=O)(=O)O)cc(N)c6c5O)cc4)cc3)c(O)c12`, the total growth inhibition concentration (TGI) in the assay on A549 NSCLC, in the assay with HL-60(TB) leukemia, with HOP-62 NSCLC, with NCI-H460 lung, in the assay with OVCAR-5 ovarian and in the assay on SK-MEL-5 melanoma was more than 100 µM throughout. For the same compound, in the assay on SN12C renal, the TGI is more than 100 µM.

Take `C[C@H](C(=O)N[C@@H](Cc1ccc(-c2ccccc2)cc1)C(=O)NC1CC(C)(C)N(C)C(C)(C)C1)c1ccc(-c2ccccc2)c(F)c1`: the GI50 with DU-145 prostate is 1.58 µM; in the assay with NCI-H460 lung it was 1.06 µM; in the assay with OVCAR-5 ovarian it was 1.46 µM; in the assay with SK-MEL-5 melanoma it was 1.59 µM; with SN12C renal, 1.31 µM; with UACC-62 melanoma, 1.92 µM. Also, the TGI with DU-145 prostate is 3 µM; in the assay on NCI-H460 lung it was 2.43 µM; in the assay with OVCAR-5 ovarian, 3 µM; in the assay on SK-MEL-5 melanoma, 2.94 µM; in the assay on SN12C renal it was 2.77 µM; with UACC-62 melanoma it was 3.63 µM.

Consider `C=C(C)[C@@H]1CC[C@]2(C(=O)Nc3ccccn3)CC[C@]3(C)[C@H](CC[C@@H]4[C@@]5(C)CCCNC(C)(C)[C@@H]5CC[C@]43C)[C@@H]12`, for which the GI50 is 1.81 µM in the assay with DU-145 prostate; 1.82 µM in the assay on HL-60(TB) leukemia; 1.71 µM in the assay with NCI-H460 lung; 1.92 µM with OVCAR-5 ovarian; 1.57 µM with SN12C renal; 1.64 µM in the assay on UACC-62 melanoma. The TGI was 3.42 µM in the assay with DU-145 prostate; 4.28 µM in the assay on HL-60(TB) leukemia; 3.3 µM in the assay with NCI-H460 lung; 3.89 µM in the assay with OVCAR-5 ovarian; 2.92 µM in the assay on SN12C renal; 3.12 µM with UACC-62 melanoma.

For the compound `OC(Cc1ccccc1)(Cc1ccccc1)c1ccccc1`, the TGI with A549 NSCLC is 46.3 µM; with DU-145 prostate, 32.3 µM; in the assay on HL-60(TB) leukemia, 52.8 µM; with HOP-62 NSCLC, 36.1 µM; in the assay with NCI-H460 lung it was 44.4 µM; in the assay with OVCAR-5 ovarian, 38 µM. Further, the TGI in the assay with SK-MEL-5 melanoma was 32.5 µM; in the assay on SN12C renal it was 32 µM; in the assay on T-47D breast, more than 100 µM; in the assay with UACC-62 melanoma it was 31.3 µM.

The values are drawn from PubChem BioAssay (NCI).
